Earlier results in patent publication US9861605B2, “Enriched injectable emulsion containing selected fatty acid triglycerides” (STABLE SOLUTIONS LLC, priority 2011, dated 2018).

Settings: against water

| SMILES | interfacial tension |
| --- | --- |
| CCCCCCCC(=O)O [caprylic acid] | approximately 8.2 dyne/cm |
| CCCCCCCC/C=C\CCCCCCCC(=O)O [oleic acid] | 15.6 dyne/cm |
